Measured values as given in US5993889A, “Trehalose phosphorylase, its preparation and use” (Kabushiki Kaisha Hayashibara Seibutsu Kagaku Kenkyujo, priority 1996, dated 1999).

T1: trehalose phosphorylase (Thermoanaerobacter brockii, UniProt Q8L164)
T1 construct: recombinant E. coli enzyme (pTTP4) equivalent
T1 sequence (Q8L164 2-774): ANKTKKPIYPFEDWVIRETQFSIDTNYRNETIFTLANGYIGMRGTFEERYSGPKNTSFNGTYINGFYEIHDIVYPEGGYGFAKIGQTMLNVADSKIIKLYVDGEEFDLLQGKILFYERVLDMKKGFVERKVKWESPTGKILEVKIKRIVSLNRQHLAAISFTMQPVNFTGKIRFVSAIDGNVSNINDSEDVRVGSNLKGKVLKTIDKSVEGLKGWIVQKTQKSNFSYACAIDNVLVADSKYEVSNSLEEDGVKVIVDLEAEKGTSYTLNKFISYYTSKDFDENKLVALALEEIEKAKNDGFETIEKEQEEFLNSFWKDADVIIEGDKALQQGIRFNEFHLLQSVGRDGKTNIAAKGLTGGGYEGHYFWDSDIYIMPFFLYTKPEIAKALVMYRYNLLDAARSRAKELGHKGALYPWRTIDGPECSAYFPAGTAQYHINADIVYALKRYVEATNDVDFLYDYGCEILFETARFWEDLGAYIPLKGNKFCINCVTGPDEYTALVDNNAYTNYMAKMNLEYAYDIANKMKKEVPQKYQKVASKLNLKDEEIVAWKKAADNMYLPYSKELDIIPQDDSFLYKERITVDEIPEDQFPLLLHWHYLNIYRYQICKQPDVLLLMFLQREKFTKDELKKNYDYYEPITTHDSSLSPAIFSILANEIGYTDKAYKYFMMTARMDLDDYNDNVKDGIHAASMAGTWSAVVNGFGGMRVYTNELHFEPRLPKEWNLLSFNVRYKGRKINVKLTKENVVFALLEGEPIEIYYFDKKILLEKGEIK

B1: trehalose phosphorylase: novel thermostable trehalose phosphorylase purified from Thermoanaerobium brockii, ATCC 35047; amino acid sequence of SEQ ID NO:4 (protein)
chain: ANKTKKPIYPFEDWVIRETQFSIDTNYRNETIFTLANGYIGMRGTFEERYSGPKNTSFNGTYINGFYEIHDIVYPEGGYGFAKIGQTMLNVADSKIIKLYVDGEEFDLLQGKILFYERVLDMKKGFVERKVKWESPTGKILEVKIKRIVSLNRQHLAAISFTMQPVNFTGKIRFVSAIDGNVSNINDSEDVRVGSNLKGKVLKTIDKSVEGLKGWIVQKTQKSNFSYACAIDNVLVADSKYEVSNSLEEDGVKVIVDLEAEKGTSYTLNKFISYYTSKDFDENKLVALALEEIEKAKNDGFETIEKEQEEFLNSFWKDADVIIEGDKALQQGIRFNEFHLLQSVGRDGKTNIAAKGLTGGGYEGHYFWDSDIYIMPFFLYTKPEIAKALVMYRYNLLDAARSRAKELGHKGALYPWRTIDGPECSAYFPAGTAQYHINADIVYALKRYVEATNDVDFLYDYGCEILFETARFWEDLGAYIPLKGNKFCINCVTGPDEYTALVDNNAYTNYMAKMNLEYAYDIANKMKKEVPQKYQKVASKLNLKDEEIVAWKKAADNMYLPYSKELDIIPQDDSFLYKERITVDEIPEDQFPLLLHWHYLNIYRYQICKQPDVLLLMFLQREKFTKDELKKNYDYYEPITTHDSSLSPAIFSILANEIGYTDKAYKYFMMTARMDLDDYNDNVKDGIHAASMAGTWSAVVNGFGGMRVYTNELHFEPRLPKEWNLLSFNVRYKGRKINVKLTKENVVFALLEGEPIEIYYFDKKILLEKGEIK

target: T1, trehalose phosphorylase; experiment: Specificity to acceptor in glucosyl-transferring saccharide-forming reaction by trehalose phosphorylase (TLC); type: biochemical, Thermoanaerobium brockii; settings: used as donor in place of β-D-glucose-1-phosphoric acid
Method: An aqueous solution, which dissolved in an equal amount, by dry weight, […], […] obtained by the method in Experiment 2, and enzymatically reacted at 60° C. and pH 7.0 for 24 hours. Similarly as in Experiment 5, the pre-reaction solutions and the post-reaction mixtures were subjected to TLC, followed by coloring the plates. Comparing spots of the samples of the solutions and mixtures detected on the plates, it was judged whether transferred saccharides were formed based on newly detected spots of the post reaction mixtures. By macroscopically observing the coloration degree of the newly detected spots, the yield of the transferred saccharides was relatively evaluated.

Question: Which “Formation of glucosyl-transferred saccharide when used as saccharide donor” value does the source give for `O=P(O)(O)O[C@H]1O[C@H](CO)[C@@H](O)[C@H](O)[C@H]1O` [α-D-glucose-1-phosphoric acid] here?
Answer: The value was “No glucosyl-transferred saccharide was obtained”.

system: not listed separately; experiment: Thermal and pH stability of trehalose phosphorylase (residual enzyme activity); type: physicochemical; settings: 10 mM phosphate buffer pH 7.0, one hour
Method: The present trehalose phosphorylase activity is assayed as follows: Add 0.2 ml of an enzyme solution to 2 ml of 20 mM phosphate buffer (pH 7.0) containing 1.0 w/v % trehalose as a substrate, incubate the solution at 60° C. for 30 min, sample the reaction mixture in an amount of 0.5 ml, and incubate the sample at 100° C. for 10 min to suspend the enzymatic reaction. Add 0.5 ml of D-glucose oxidase/peroxidase reagent to the heated sample, stir the mixture, keep the mixture at 40° C. for 30 min, add 2.5 ml of 5-N hydrochloric acid, stir the resulting mixture, and measure the absorbance of the mixture at a wavelength of 525 nm. One unit of the enzyme activity is defined as the enzyme that forms one […] of D-glucose per one minute. […]
(§1) Influences of temperatures and pHs on the present trehalose phosphorylase activity were studied in accordance with the assay for enzyme activity. […] In both cases, the enzymatic reactions were suspended similarly as in the enzyme assay, followed by quantifying the formed glucose. […] The thermal stability of the enzyme was determined by incubating the enzyme dissolved in 10 mM phosphate buffer (pH 7.0) at a temperature of about 40-85° C. for one hour, cooling the incubated enzyme, and assaying for the residual enzyme activity according to the enzyme assay. […]

Question: With B1 as the molecule, how does the Thermal stability read?
Answer: The Thermal stability was “up to 60 °C”.

same assay, conditions: 4° C. for 24 hours

Question: Which pH stability does the source give for B1 here?
Answer: Its pH stability is 6.0-9.0.

target: T1, trehalose phosphorylase; experiment: Substrate specificity for saccharide-hydrolyzing reaction by trehalose phosphorylase (TLC); type: biochemical, Thermoanaerobium brockii; parameters: key: +: Hydrolyzed by the action of the present trehalose phosphorylase.; -: Not hydrolyzed by the action of the present trehalose phosphorylase; settings: saccharide 2 w/v %, 10 units/g saccharide purified enzyme, 5 mM disodium hydrogenphosphate, 60° C., pH 7.0, 24 hours
Method: An aqueous solution of a saccharide selected from D-glucose, maltose, sucrose, lactose, trehalose, neotrehalose, cellobiose, melibiose, kojibiose, isomaltose, sophorose, gentibiose, nigerose, laminaribiose, maltopentaose, and 4-O-α-D-glucosyltrehalose was mixed with 10 units/g saccharide, d.s.b., of a purified trehalose phosphorylase obtained by the method in Experiment 2, and incubated in the presence of 5 mM disodium hydrogenphosphate at 60° C. and pH 7.0 for 24 hours. The saccharide concentration of each reaction solution was 2 w/v %. Pre-reaction solutions and post-reaction mixtures were subjected to thin layer chromatography (hereinafter abbreviated as "TLC") using "KIESELGEL 60 (20×20 cm)", an aluminum plate for TLC commercialized by Merck & Co., Inc., Rahway, USA. Samples were developed once at ambient temperature on the plate using 1-butanol/pyridine/water (=7:3:1 by volume) as a developing solvent system, and the plate was sprayed with 20 v/v % sulfuric acid/methanol solution, and heated at 110° C. for about 10 min for coloration. Comparing spots of the solutions and mixtures detected on the plates, it was checked whether the enzyme acted on the saccharides.

Question: For `OC[C@H]1OC(O)[C@H](O)[C@@H](O)[C@@H]1O` (stereo partly drawn) [D-Glucose], which Decomposition is on record?
Answer: Its Decomposition is “-”.

Question: With `OC[C@H]1O[C@H](O[C@H]2O[C@H](CO)[C@@H](O)[C@H](O)[C@H]2O)[C@H](O)[C@@H](O)[C@@H]1O` [Trehalose] as the molecule, how does the Decomposition read?
Answer: The Decomposition was “+”.

Question: With `OC[C@H]1O[C@H](O[C@H]2[C@H](O)[C@@H](O)[C@H](O)O[C@@H]2CO)[C@H](O)[C@@H](O)[C@@H]1O` [Maltose] as the molecule, how does the Decomposition read?
Answer: Its Decomposition is “-”.

Question: For `OC[C@H]1O[C@H](OC[C@H]2OC(O)[C@H](O)[C@@H](O)[C@@H]2O)[C@H](O)[C@@H](O)[C@H]1O` (some centres unmarked) [Melibiose], which Decomposition is on record?
Answer: Its Decomposition is “-”.

Question: With `OC[C@H]1O[C@@H](O[C@H]2O[C@H](CO)[C@@H](O)[C@H](O)[C@H]2O)[C@H](O)[C@@H](O)[C@@H]1O` [Neotrehalose] as the molecule, how does the Decomposition read?
Answer: The Decomposition was “-”.

Question: For `OC[C@H]1O[C@H](O[C@H]2O[C@H](CO)[C@@H](O[C@H]3O[C@H](CO)[C@@H](O)[C@H](O)[C@H]3O)[C@H](O)[C@H]2O)[C@H](O)[C@@H](O)[C@@H]1O` [4-O-α-D-glucosyltrehalose], which Decomposition is on record?
Answer: Its Decomposition is “-”.

Question: With `OC[C@H]1O[C@@H](OC[C@H]2OC(O)[C@H](O)[C@@H](O)[C@@H]2O)[C@H](O)[C@@H](O)[C@@H]1O` (some centres unmarked) [Gentibiose] as the molecule, how does the Decomposition read?
Answer: The Decomposition was “-”.

Question: With `OC[C@H]1O[C@H](O[C@H]2C(O)O[C@H](CO)[C@@H](O)[C@@H]2O)[C@H](O)[C@@H](O)[C@@H]1O` (some centres unmarked) [Kojibiose] as the molecule, how does the Decomposition read?
Answer: The Decomposition was “-”.

Question: With `OC[C@H]1O[C@H](O[C@H]2[C@H](O)[C@@H](O)[C@@H](O[C@H]3[C@H](O)[C@@H](O)[C@@H](O[C@H]4[C@H](O)[C@@H](O)[C@@H](O[C@H]5[C@H](O)[C@@H](O)C(O)O[C@@H]5CO)O[C@@H]4CO)O[C@@H]3CO)O[C@@H]2CO)[C@H](O)[C@@H](O)[C@@H]1O` (some centres unmarked) [Maltopentaose] as the molecule, how does the Decomposition read?
Answer: The Decomposition was “-”.

Question: Which Decomposition does the source give for `OC[C@H]1O[C@H](OC[C@H]2OC(O)[C@H](O)[C@@H](O)[C@@H]2O)[C@H](O)[C@@H](O)[C@@H]1O` (some centres unmarked) [Isomaltose] here?
Answer: The Decomposition was “-”.

system: not listed separately; experiment: Trehalose phosphorylase activity assay (specific activity, influence of temperature and pH); type: biochemical; settings: incubated at 60° C. for 30 min
Method: The present trehalose phosphorylase activity is assayed as follows: Add 0.2 ml of an enzyme solution to 2 ml of 20 mM phosphate buffer (pH 7.0) containing 1.0 w/v % trehalose as a substrate, incubate the solution at 60° C. for 30 min, sample the reaction mixture in an amount of 0.5 ml, and incubate the sample at 100° C. for 10 min to suspend the enzymatic reaction. Add 0.5 ml of D-glucose oxidase/peroxidase reagent to the heated sample, stir the mixture, keep the mixture at 40° C. for 30 min, add 2.5 ml of 5-N hydrochloric acid, stir the resulting mixture, and measure the absorbance of the mixture at a wavelength of 525 nm. One unit of the enzyme activity is defined as the enzyme that forms one […] of D-glucose per one minute. The activity of maltose- and kojibiose-phosphorylases can be assayed similarly as the same assay as indicated above except that the trehalose as a substrate is respectively replaced with maltose and kojibiose.
The yield of the purified enzyme specimen, obtained by the above purification steps, was about 25% with respect to the enzyme activity of the supernatant of the disrupted cell suspension. […] Protein was quantified according to the Lowry method using calf serum albumin as a standard protein.
as §1, with “assay. The pH stability of the enzyme was determined by dissolving the enzyme in buffers with different pHs of about 4-10, keeping each enzyme solution at 4° C. for 24 hours, adjusting each solution to give a pH of 7.0, and assaying for the residual enzyme activity according to the enzyme assay.” for “assay.”

Question: For B1, which “Optimum pH” value is on record?
Answer: Its value is 7.0-7.5.

same assay, conditions: incubated at pH 7.0 for 30 min

Question: With B1 as the molecule, how does the Optimum temperature read?
Answer: The Optimum temperature was “about 70 °C”.

same assay, conditions: purified enzyme specimen; trehalose substrate, 60° C., pH 7.0

Question: With B1 as the molecule, how does the Specific activity read?
Answer: Its Specific activity is 78.2 units/mg protein.

system: not listed separately; experiment: Isoelectric point by polyacrylamide gel electrophoresis using ampholyte; type: physicochemical; settings: electrophoresis using 2 w/v % ampholyte

Question: Which “Isoelectric point (pI)” value does the source give for B1 here?
Answer: Its value is 5.4±0.5.
